# How the values were obtained:
# AURKB (Aurora B) enzyme = target: T1, AURKB (Aurora B) enzyme (Homo sapiens, UniProt Q96GD4); test: Aurora B HTRF assay; assay type: biochemical; conditions: read-out: AuroraB IC50
# T1 construct: purchased Invitrogen PVR 130
# Protocol: AURKB (Aurora B) enzyme was obtained (Invitrogen, Cat No. PVR 130, Lot No. 857013J). A 8.64 μM stock was used at a final concentration 5 nM in the assay.
# Lance@Ultera Ulight-PLK (Ser137) peptide substrate
# Peptide substrate was obtained from Perkin Elmer (Lot#1629793, TRF0110-M). A 5 μM stock was used at a final concentration of 50 nM in the assay.
# 10 mM stock prepared freshly as above, used at a final concentration of 30 μM in assay.
# The plate was covered with aluminum foil, put on a shaker and incubated 1 h at rt.
# Reference: Pfizer aurora inhibitor PF-03814735 was procured from Selleckchem: Cat# S2725
# Using stock Lance detection buffer, 1× Lance detection buffer was prepared. • 1. 10× lance detection buffer was diluted to 1×, mixed well and 100 μL was removed, and was used to substitute with antibody and EDTA (for a total of 2200 μL). • 2. 88 μL of […] EDTA was added from 500 mM stock. • 3. 14 μL Europium labeled antibody (LANCE@ Ultra EU-Anti-P-PLK(Ser 137), TRF0203-D, Lot No. 1630351, Perkin Elmer) was added from 625 nM stock; required concentration was 2 nM in the assay. • 4. The buffer well was mixed and 20 μL was transferred to the each well in the assay plate. • 5. The solutions were incubated for 1 h at rt. • 6. The plate was read using MET-HTRF® protocol using Pherastar equipment.
# recombinant human FAK1 = target: T2, recombinant human FAK1 (Homo sapiens, UniProt Q05397); test: FAK1 HTRF assay; assay type: biochemical
# T2 construct: fused on or other part: N-terminal 6xHis tag
# T2 sequence (Q05397 422-680 limits assumed): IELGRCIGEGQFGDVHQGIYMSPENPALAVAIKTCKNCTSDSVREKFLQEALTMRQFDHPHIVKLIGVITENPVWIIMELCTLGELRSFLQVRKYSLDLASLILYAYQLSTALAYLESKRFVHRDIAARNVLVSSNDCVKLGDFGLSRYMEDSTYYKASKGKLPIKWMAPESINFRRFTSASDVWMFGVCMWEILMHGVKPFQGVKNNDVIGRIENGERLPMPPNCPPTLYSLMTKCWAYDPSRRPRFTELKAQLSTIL
# Protocol: Active FAK1 was prepared for use in the Homogeneous Time-Resolved Fluorescence (HTRF) assay. Briefly, N-terminal 6 His tagged recombinant human FAK1, from residue 692-end (GenBank accession no. L13616) was expressed by Bacculovirus in sf9 cells. […] A 1.6 mg/mL (45 μM) stock was used in the HTRF assay at a final concentration of 10 nM.
# Gastrin precursor (tyr87) biotinylated peptide which contains the residues surrounding tyrosine 87 (EEAY*GWM) of gastrin precursor was obtained (Cell Signaling Tech, Item no. 1310, Lot 7). The peptide was provided at a stock concentration of 6 μM, and used a final concentration of 0.5 μM in the HTRF assay.
# 10 mM stock in 100 μL Enzyme assay buffer pH7.4 was prepared freshly and used at a final concentration of 10 μM in the assay.
# Powders were dissolved in 100% DMSO to a final stock concentration of 10 mM. The volume needed (in μL) to add for 10 mM=mg powder is 10^5/MW of compound. The final compound concentration in the assay plate started at 10 μM.
# Pfizer FAK inhibitor PF-562271 (N-methyl-N-(3-(((2-((2-oxoindolin-5-yl)amino)-5-(trifluoromethyl)pyrimidin-4-yl)amino)methyl)pyridin-2-yl)methanesulfonamide) was prepared as per the reported procedure from US Patent Publication No. 2005/256145A1.
# Streptavidin-Allophycocyanin was obtained (Prozyme, Cat. No. PJ25S. SA-APC was provided at a stock concentration of 2.06 mg/mL, where APC concentration was 11.6 μM and the streptavidin concentration was 15.5 μM. SA-APC was used at a final concentration of 12 nM in the assay (based on streptavidin concentration).
# This reagent was obtained from Perkin ElmerAD0068. Europium-W1024-PT-66 Anti Phospho Tyrosine Ab is a monoclonal IgG1 that recognizes phospho tyrosine peptide. 100 μg/mL stock was used at a final concentration of 0.1 nM in the assay.
# • 1. The compound dilutions were made by TECAN liquid handler as per the scheme in FIG. 1. • 2. 16 μL of diluted compound was added to each well of the assay plate using TECAN liquid handler. • 3. 20 μL of substrate mix (biotinylated gastrin precursor) was added into each well of the assay plate manually. • 4. 10 μL of enzyme mix (FAK1) was added to each well except mins. • 5. The plate was incubated at rt for 45 min with shaking. • 6. The HTRF mix was prepared and 75 μL was added to the HTRF plate. • 7. After the incubation was over, 10 μL of the mixture was transferred to the HTRF assay plate and incubated for 45 min at rt with shaking. • 8. The readings were taken in Pherastar in HTRF mode (ext 337 nm, em 665 & 620 nm) • 9. The results were analyzed using Graphpad Prism® software after calculation the z factor signal window and % inhibition. • 10. The IC50 was calculated.
# T1 sequence (Q96GD4 whole entry): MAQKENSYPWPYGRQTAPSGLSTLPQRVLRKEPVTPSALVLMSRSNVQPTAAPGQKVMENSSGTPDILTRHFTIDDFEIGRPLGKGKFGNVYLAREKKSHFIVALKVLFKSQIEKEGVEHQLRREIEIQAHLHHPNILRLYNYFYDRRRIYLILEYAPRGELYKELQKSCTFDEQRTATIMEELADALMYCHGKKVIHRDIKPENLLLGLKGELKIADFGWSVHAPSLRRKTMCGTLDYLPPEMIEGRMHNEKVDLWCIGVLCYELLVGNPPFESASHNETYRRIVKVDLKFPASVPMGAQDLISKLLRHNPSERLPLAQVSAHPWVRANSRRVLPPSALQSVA
SMILES,IC50 (AURKB (Aurora B) enzyme) [nM],IC50 (recombinant human FAK1) [nM]
CN(c1ncccc1Cn1ccc2cnc(Nc3cccc(CO)c3)nc21)S(C)(=O)=O [Example 166],< 20,–
CC(=O)Nc1ccc(Nc2cc3c(cn2)cnn3Cc2ccccc2OC(F)F)nc1 [Example 73],> 1000,–
Cc1ccc2cccc(S(=O)(=O)n3ccc4cnc(Nc5ccc(N6CCNCC6)cc5)nc43)c2n1 [Example 367],< 20,–
COc1cc(Nc2ncc3ccn(S(=O)(=O)c4cccc5cccnc45)c3n2)ccc1N1CCN(CCO)CC1 [Example 431],< 20,< 20
O=S(=O)(c1cccc2cccnc12)n1ccc2cnc(Nc3ccc(N4CCC(CO)CC4)cc3)nc21 [Example 440],< 20,< 20
C[C@@H]1CNCCN1c1ccc(Nc2ncc3ccn(S(=O)(=O)c4cccc5cccnc45)c3n2)cc1 [Example 490],< 20,< 20
C[C@H](O)CN1CCN(c2ccc(Nc3ncc4ccn(Cc5ccccc5N(C)S(C)(=O)=O)c4n3)cc2)CC1 [Example 632],< 20,< 20
CN(c1ccccc1Cn1ccc2cnc(Nc3ccc(N4CCNC(C)(C)C4=O)cc3)nc21)S(C)(=O)=O [Example 552],< 20,–
C[C@H]1CNCCN1c1ccc(Nc2ncc3ccn(S(=O)(=O)c4cccc5cccnc45)c3n2)cc1 [Example 326],< 20,< 20
Nc1ccccc1S(=O)(=O)n1ccc2cnc(Nc3ccc4c(c3)CCC(=O)N4)nc21 [Example 164],< 20,–
COc1ccc(N(C)S(C)(=O)=O)c(Cn2ccc3cnc(Nc4ccc5c(c4)CC(=O)N5)nc32)c1 [Example 691],< 20,< 20
CN1CCC(NC(=O)c2ccc(Nc3ncc4ccn(Cc5ccccc5N(C)S(C)(=O)=O)c4n3)cc2)CC1 [Example 777],< 20,< 20
CN(C)C1CCN(c2ccc(Nc3cc4c(ccn4S(=O)(=O)c4ccccc4C#N)cn3)cc2)CC1 [Example 485],< 20,< 20
CN1CC2CC1CN2c1ccc(Nc2ncc3ccn(S(=O)(=O)c4cccc5cccnc45)c3n2)cc1 (stereo not drawn) [Example 410],< 20,< 20
CN(c1ncccc1CN1C(=O)Cc2cnc(Nc3ccc(N4CCC(O)CC4)cc3)nc21)S(C)(=O)=O [Example 404],> 1000,–
CN(c1ccccc1Cn1ccc2cnc(Nc3ccc(C4CNCCN4)cc3)nc21)S(C)(=O)=O (stereo not drawn) [Example 610],< 20,–
CN(c1ncccc1Cn1ccc2cnc(Nc3ccc4nn[nH]c4c3)nc21)S(C)(=O)=O [Example 189],< 20,–
CS(=O)(=O)Nc1ccccc1Cn1ccc2cnc(Nc3ccc4c(c3)OCC(=O)N4)nc21 [Example 618],< 20,< 20
C[C@@H]1CNCCN1c1ccc(Nc2ncc3ccn(Cc4ccccc4N(C)S(C)(=O)=O)c3n2)cc1 [Example 482],< 20,–
CN(C)CCOc1cccc(Nc2ncc3ccn(S(=O)(=O)c4ccccc4C#N)c3n2)c1 [Example 173],< 20,–
N#Cc1ccccc1S(=O)(=O)n1ccc2cnc(Nc3ccc4c(c3)CCC(=O)N4)nc21 [Example 115],< 20,< 20
C[C@@H]1CNCCN1c1ccc(Nc2cc3c(ccn3S(=O)(=O)c3cccc4cccnc34)cn2)cc1 [Example 480],< 20,< 20
CC1(C)CN(S(=O)(=O)c2cccc3cccnc23)c2nc(Nc3ccc(N4CCNCC4)c(F)c3)ncc21 [Example 524],> 1000,–

SMILES,IC50 (AURKB (Aurora B) enzyme) [nM],IC50 (recombinant human FAK1) [nM]
CS(=O)(=O)Nc1ccccc1Cn1ccc2cnc(Nc3ccc4c(c3)CCC(=O)N4)nc21 [Example 595],< 20,< 20
N#Cc1ccccc1S(=O)(=O)n1ccc2cnc(Nc3ccc4c(c3)CC3CNCCN43)cc21 (stereo not drawn) [Example 551],< 20,–
"C[C@H](O)CN1CCN(c2ccc(Nc3ncc4ccn(Cc5ccccc5N(C)S(C)(=O)=O)c4n3)cc2)C[C@@H]1C [Example 695, N-(2-((2-((4-((S)-4-((S)-2-hydroxypropyl)-3-methylpiperazin-1-yl)phenyl)amino)-7H-pyrrolo[2,3-d]pyrimidin-7-yl)methyl)phenyl)-N-methylmethanesulfonamide]",< 20,< 20
CC1(C)CN(S(=O)(=O)c2ccccc2C#N)c2nc(Nc3ccc(N4CCNCC4)cc3)ncc21 [Example 461],> 1000,–
CN(C)C1CN(c2ccc(Nc3ncc4ccn(Cc5ccccc5N(C)S(C)(=O)=O)c4n3)cc2F)C1 [Example 608],< 20,–
C[C@H]1CN(c2ccc(Nc3ncc4ccn(Cc5cccnc5N(C)S(C)(=O)=O)c4n3)cc2)CCN1C [Example 487],< 20,–
C[C@H](O)CN1CCN(c2ccc(Nc3ncc4ccn(Cc5ccccc5N(C)S(C)(=O)=O)c4n3)cc2)C[C@H]1C [Example 692],< 20,–
CN(C)C1CCCN(c2ccc(Nc3ncc4ccn(Cc5ccccc5N(C)S(C)(=O)=O)c4n3)cc2)C1 (stereo not drawn) [Example 598],< 20,–
CN(C)S(=O)(=O)c1ccccc1Cn1ccc2cnc(Nc3ccc(N4CCNCC4)cc3)nc21 [Example 200],< 20,–
CN1CCN(c2ccc(Nc3ncc4c(n3)N(S(=O)(=O)c3cccc5cccnc35)CC4(C)C)cc2)CC1 [Example 498],> 1000,–
Cc1nn(Cc2cccnc2N(C)S(C)(=O)=O)c2cc(Nc3ccc4c(c3)CCC(=O)N4)ncc12 [Example 69],> 1000,–
C[C@@H]1CN(c2ccc(Nc3ncc4c(n3)N(S(=O)(=O)c3ccccc3C#N)CC4(C)C)cc2)CCN1 [Example 466],> 1000,–
N#Cc1ccccc1S(=O)(=O)n1ccc2cnc(Nc3ccc(C4CNCCN4)cc3)cc21 (stereo not drawn) [Example 614],< 20,–
C[C@H]1CN(c2ccc(Nc3ncc4ccn(Cc5ccccc5N(C)S(C)(=O)=O)c4n3)cc2F)CCN1 [Example 557],< 20,–
Cc1cc(Nc2ncc3c(n2)N(S(=O)(=O)c2cccc4cccnc24)CC3(C)C)ccc1N1CCC(N(C)C)CC1 [Example 648],> 1000,–
C[C@@H]1CN(C)CCN1c1ccc(Nc2ncc3ccn(Cc4ccccc4N(C)S(C)(=O)=O)c3n2)cc1 [Example 488],< 20,–
CN(c1ccccc1Cn1ccc2cnc(Nc3ccc(N4CCC(N)CC4)cc3)nc21)S(C)(=O)=O [Example 463],< 20,–
C[C@H]1CNCCN1c1ccc(Nc2ncc3c(n2)N(S(=O)(=O)c2cccc4cccnc24)CC3(C)C)cc1 [Example 564],> 1000,–
CC(=O)Nc1ccc(Nc2cc3c(cn2)cnn3Cc2ccccc2OC(F)F)cc1 [Example 75],> 1000,–
c1cnc2c(Cn3ccc4cnc(Nc5ccc(N6CCNCC6)cc5)nc43)cccc2c1 [Example 378],< 20,–
C[C@H](O)CN1CCN(c2ccc(Nc3cc4c(ccn4S(=O)(=O)c4ccccc4C#N)cn3)cc2)CC1 [Example 631],< 20,–
CN(c1ccccc1Cn1ccc2cnc(Nc3ccc(N4CCNC(CO)C4)cc3)nc21)S(C)(=O)=O (stereo not drawn) [Example 602],< 20,–
C[C@H]1CN(c2ccc(Nc3ncc4c(n3)N(S(=O)(=O)c3cccc5cccnc35)CC4(C)C)cc2F)CCN1 [Example 554],> 1000,–

# — patent US20160222014A1, “COMPOUNDS FOR REGULATING FAK AND/OR SRC PATHWAYS” (ASANA BIOSCIENCES, LLC, priority 2013, published 2016)
